In patent publication US8889684B2, “Azaindolylphenyl sulfonamides as serine/threonine kinase inhibitors” (Boehringer Ingelheim International GmbH, priority 2011, dated 2014) one finds IC50 and EC50 data, which are given here for 45 compounds.

B-Raf (V600E)-kinase, sequence (P15056 whole entry V600E): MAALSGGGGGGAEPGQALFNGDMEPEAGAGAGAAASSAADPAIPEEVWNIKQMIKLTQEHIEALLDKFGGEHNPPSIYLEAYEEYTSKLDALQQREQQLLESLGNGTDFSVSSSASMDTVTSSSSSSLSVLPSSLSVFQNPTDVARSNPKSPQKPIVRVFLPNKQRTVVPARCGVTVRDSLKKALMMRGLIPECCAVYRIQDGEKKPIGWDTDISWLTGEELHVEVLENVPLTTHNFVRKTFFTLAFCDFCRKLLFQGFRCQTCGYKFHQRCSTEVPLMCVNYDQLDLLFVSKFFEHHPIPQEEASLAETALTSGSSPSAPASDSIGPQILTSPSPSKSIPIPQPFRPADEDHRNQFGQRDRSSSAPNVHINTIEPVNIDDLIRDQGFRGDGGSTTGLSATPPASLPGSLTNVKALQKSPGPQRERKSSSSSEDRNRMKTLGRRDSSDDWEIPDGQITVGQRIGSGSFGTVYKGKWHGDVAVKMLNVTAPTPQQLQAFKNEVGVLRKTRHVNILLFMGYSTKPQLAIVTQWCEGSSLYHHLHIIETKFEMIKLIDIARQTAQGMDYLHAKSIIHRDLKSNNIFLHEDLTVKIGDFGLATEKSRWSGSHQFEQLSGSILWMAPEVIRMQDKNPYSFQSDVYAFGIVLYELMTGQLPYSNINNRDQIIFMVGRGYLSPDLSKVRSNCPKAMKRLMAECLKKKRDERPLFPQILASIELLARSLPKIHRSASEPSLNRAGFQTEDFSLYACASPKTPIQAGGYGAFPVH

The first experiment has as its target B-Raf (V600E)-kinase (Homo sapiens (Human), UniProt P15056, V600E). Nature of the experiment: Kinase test B-Raf (V600E). It is filed as biochemical. Particulars: 250 μM ATP, biotinylated MEK1 substrate. On the procedure: Kinase test B-Raf (V600E)
In a dilution series 10 μL/well of test substance solution are placed in a multiwell plate. The dilution series is selected so that generally a range of concentrations of 2 μM to 0.119 nM or 0.017 nM is covered. If necessary the initial concentration of 2 μM is changed to 50 μM, 10 μM, 0.4 μM or 0.2857 μM and further dilution is carried out accordingly. The final concentration of DMSO is 5%. 10 μL/well of the B-Raf (V600E)-kinase solution are pipetted in (containing 0.5 ng B-Raf (V600E)-kinase, e.g. from Upstate) in 20 mM Tris-HCl pH 7.5, 0.1 mM EDTA, 0.1 mM EGTA, 0.286 mM sodium orthovanadate, 10% glycerol, 1 mg/mL bovine serum albumin, 1 mM dithiothreitol) and the mixture is incubated for 1 h at RT with shaking. The kinase reaction is started by the addition of 20 μL/well ATP solution [final concentration: 250 μM ATP, 30 mM Tris-HCl pH 7.5, 0.02% Brij, 0.2 mM sodium orthovanadate, 10 mM magnesium acetate, 0.1 mM EGTA, phosphatase cocktail (Sigma, #P2850, dilution recommended by the manufacturer)] and 10 μL/well MEK1 solution [containing 50 ng biotinylated MEK1 (prepared from purified MEK1 according to standard procedure, e.g. with EZ-Link Sulpho-NHS-LC-Biotin reagent, Pierce, #21335)] and carried out for 60 min at RT with constant shaking. The reaction is stopped by the addition of 12 μL/well of a 100 mM EDTA solution and incubation is continued for a further 5 min. 55 μL/well of the reaction solution are transferred into a streptavidin-coated plate (e.g. Streptawell HighBond, Roche, #11989685001) and gently shaken for 1 h at RT in order to bind biotinylated MEK1 to the plate. After elimination of the liquid the plate is washed five times with 200 μL/well of 1×PBS and 100 μL/well solution of primary antibody plus europium-labelled secondary antibody [Anti Phospho-MEK (Ser217/221), Cell Signaling, #9121 and Eu—N1 labelled goat-anti-rabbit antibody, Perkin Elmer, #AD0105] is added, the primary antibody is diluted 1:2000 and the secondary antibody is diluted to 0.4-0.5 μg/mL in Delfia Assay Buffer (Perkin Elmer, #1244-111). After 1 h shaking at RT the solution is poured away and washed five times with 200 μL/well Delfia Wash Buffer (Perkin Elmer, #4010-0010/#1244-114). After the addition of 200 μL/well Enhancement Solution (Perkin Elmer, #4001-0010/#1244-105) the mixture is shaken for 10 min at RT and then measured in a Wallac Victor using the program “Delfia Time Resolved Fluorescence (Europium)”. IC50 values are obtained from these dosage-activity curves using a software program (GraphPadPrizm).
Consider `CCCS(=O)(=O)Nc1ccc(F)c(-n2cc(-c3cncc(OC)c3)c3nc(N4CCN(C)CC4)ncc32)c1F` [I-6], for which the IC50 (usually the concentration that inhibits the measured activity by half) was found to be 1610 nM. For the compound `CCCS(=O)(=O)Nc1ccc(F)c(-n2cc(-c3cncnc3)c3nc(N(C)C4CCN(CCOC)CC4)ncc32)c1F` [I-11], the IC50 worked out at 42 nM. Take `CCCS(=O)(=O)Nc1ccc(F)c(-n2cc(-c3cncc(OC)c3)c3nc(N4CCN(C)CC4)ccc32)c1F` [I-3]: the IC50 amounted to 297 nM. The same measure, in the same setting: the same measure for `CCCS(=O)(=O)Nc1ccc(F)c(-n2cc(-c3cncnc3)c3nc(N(C)C4CCN(CC)CC4)ncc32)c1F` [I-9]: 16 nM; for `CCCS(=O)(=O)Nc1ccc(F)c(-n2cc(-c3cncc(OC)c3)c3nc(N4CCN(CCOC)CC4)ccc32)c1F` [I-4]: 125 nM. Same read-out and setting: then `CCCS(=O)(=O)Nc1ccc(F)c(-n2cc(-c3cncnc3)c3nc(N(C)C4CCN(C5CC5)CC4)ncc32)c1F` [I-10], with 29 nM. Still for that read-out and setting: the same measure for `CCCS(=O)(=O)Nc1ccc(F)c(-n2cc(-c3cncnc3)c3nc(N(C)C4CCNCC4)ncc32)c1F` [I-12]: 41 nM; for `CCCS(=O)(=O)Nc1ccc(F)c(-n2cc(-c3cncc(OC)c3)c3nc(N(C)C4CCN(C)CC4)ncc32)c1F` [I-7]: 7 nM. For `CCCS(=O)(=O)Nc1ccc(F)c(-n2cc(-c3cncc(OC)c3)c3nc(N(C)C4CCN(C)CC4)cnc32)c1F` [I-5], the 50% inhibitory concentration (IC50) came to 16 nM. The same measure, in the same setting: then `CCCS(=O)(=O)Nc1ccc(F)c(-n2cc(-c3cncnc3)c3nc(N(C)C4CCN(C)CC4)ncc32)c1F` [I-8], with 4 nM.

Another experiment concerns SK-MEL-28 cells. Nature of the experiment: Inhibition of the proliferation of cultivated human melanoma cells (SK-MEL-28, B-RAF V600E mutated). Particulars: 72 h incubation, AlamarBlue. It is filed as cell-based. On the procedure:
Measurement of the Inhibition of the Proliferation of Cultivated Human Melanoma cells (SK-MEL-28, B-RAF^V600E Mutated)
SK-MEL-28 cells are placed in 96-well flat bottomed dishes in a density of 2500 cells per well in supplemented MEM medium (see above) and incubated overnight in an incubator (at 37° C. and 5% CO2). […] After an incubation period of a further 72 h 20 μL AlamarBlue reagent (Serotec Ltd., #BUF012B) are added to each well and the cells are incubated for a further 3-6 h. The colour change of the AlamarBlue reagent is determined in a fluorescence spectrophotometer (e.g. Gemini, Molecular Devices). EC50 values are calculated using a software program (GraphPadPrizm).
A general note: Resazurin is reduced to fluorescent resorufin, in cell work by metabolically active cells.
As to `CCCS(=O)(=O)Nc1ccc(F)c(-n2cc(-c3cncnc3)c3nc(N(C)C4CCN(CC(C)(C)O)CC4)c(F)cc32)c1F` [I-36], the EC50 (as a rule, the concentration needed to bring the measured effect to its halfway point) was 7 nM. Same read-out and setting: then `CCCS(=O)(=O)Nc1ccc(F)c(-n2cc(-c3cncnc3)c3nc(N(C)C4CCN(CC(C)(C)O)CC4)ccc32)c1F` [I-45], with 5 nM; and `CCCS(=O)(=O)Nc1ccc(F)c(-n2cc(-c3cncnc3)c3nc(N4CCN(CC)CC4)ccc32)c1F` [I-23], with 40 nM. The same measure, in the same setting: then `CCCS(=O)(=O)Nc1ccc(F)c(-n2cc(-c3cncnc3)c3nc(N(C)C4CCN(CC)CC4)ccc32)c1Cl` [I-47], with 2 nM.

In turn, `O=S(=O)(CC1CC1)Nc1ccc(F)c(-n2cc(-c3cncnc3)c3nc(N4CCNCC4)ccc32)c1F` [I-25] gave an EC50 of 27 nM. On the same count and under the same terms, then `CCCS(=O)(=O)Nc1ccc(F)c(-n2cc(-c3cncc(OC)c3)c3nc(N4CCN(C)CC4)ncc32)c1F` [I-6], with 121 nM. The same measure, in the same setting: the same measure for `[2H]C([2H])([2H])N(c1ccc2c(n1)c(-c1cncnc1)cn2-c1c(F)ccc(NS(=O)(=O)CCC)c1F)C1CCN(CC)CC1` [I-41]: 1 nM; for `CN(c1ncc2c(n1)c(-c1cncnc1)cn2-c1c(F)ccc(NS(=O)(=O)CC2CC2)c1F)C1CCN(CC2CC2)CC1` [I-28]: 7 nM; for `CCCS(=O)(=O)Nc1ccc(F)c(-n2cc(-c3cncnc3)c3nc(N(C)C4CCN(C5COC5)CC4)ncc32)c1F` [I-38]: 5 nM. Regarding `CCCS(=O)(=O)Nc1ccc(F)c(-n2cc(-c3cncnc3)c3nc(N4CCNCC4)ccc32)c1F` [I-33], the EC50 turned out to be 14 nM. On the same count and under the same terms, the same measure for `CCCS(=O)(=O)Nc1ccc(F)c(-n2cc(-c3cncnc3)c3nc(N(C)C4CCN(CC5CC5)CC4)ccc32)c1F` [I-37]: 2 nM; for `CN(c1ncc2c(n1)c(-c1cncnc1)cn2-c1c(F)ccc(NS(=O)(=O)CC2CC2)c1F)C1CCNCC1` [I-19]: 110 nM; for `CCCS(=O)(=O)Nc1ccc(F)c(-n2cc(-c3cncnc3)c3nc(N(C)C4CCN(CCOC)CC4)ncc32)c1F` [I-11]: 21 nM. As for `CCCS(=O)(=O)Nc1ccc(F)c(-n2cc(-c3cncc(OC)c3)c3nc(N4CCN(C)CC4)ccc32)c1F` [I-3], the EC50 is 114 nM.

For the compound `CN(c1ncc2c(n1)c(-c1cncnc1)cn2-c1c(F)ccc(NS(=O)(=O)c2ccoc2)c1F)C1CCN(CC2CC2)CC1` [I-39], a half-maximal effect (EC50) was put at 0.47 nM.

The compound `[2H]C([2H])([2H])N(c1ccc2c(n1)c(-c1cncnc1)cn2-c1c(F)ccc(NS(=O)(=O)CCC)c1F)C1CCN(C([2H])([2H])C([2H])([2H])[2H])CC1` [I-44] gave an EC50 of 1 nM. Same read-out and setting: the same measure for `CN1CCN(c2ccc3c(n2)c(-c2cncnc2)cn3-c2c(F)ccc(NS(=O)(=O)CC3CC3)c2F)CC1` [I-20]: 72 nM; for `CCN1CCN(c2ccc3c(n2)c(-c2cncnc2)cn3-c2c(F)ccc(NS(=O)(=O)CC3CC3)c2F)CC1` [I-18]: 90 nM; for `CCCS(=O)(=O)Nc1ccc(F)c(-n2cc(-c3cncnc3)c3nc(N(C)C4CCNCC4)ccc32)c1F` [I-14]: 6 nM.

Regarding `CCCS(=O)(=O)Nc1ccc(F)c(-n2cc(-c3cncnc3)c3nc(N4CCNCC4)ncc32)c1F` [I-26], the EC50 turned out to be 73 nM. As for `CCCS(=O)(=O)Nc1ccc(F)c(-n2cc(-c3cncnc3)c3nc(N(C)C4CCN(CC)CC4)ncc32)c1F` [I-9], the response was half-maximal at 11 nM (EC50). On the same count and under the same terms, then `CCCS(=O)(=O)Nc1ccc(F)c(-n2cc(-c3cncnc3)c3nc(N(C)C4CCN(CC)CC4)c(F)cc32)c1F` [I-40], with 3 nM. On the same count and under the same terms, the same measure for `CCCS(=O)(=O)Nc1ccc(F)c(-n2cc(-c3cncc(OC)c3)c3nc(N4CCN(CCOC)CC4)ccc32)c1F` [I-4]: 63 nM. The same measure, in the same setting: then `CN1CCC(N(C)c2ccc3c(n2)c(-c2cncnc2)cn3-c2c(F)ccc(NS(=O)(=O)C3CC3)c2F)CC1` [I-32], with 2 nM; and `CN1CCN(c2ccc3c(n2)c(-c2cncnc2)cn3-c2c(F)ccc(NS(=O)(=O)CC3CCCO3)c2F)CC1` (stereo not drawn) [I-17], with 386 nM; and `CCCS(=O)(=O)Nc1ccc(F)c(-n2cc(-c3cncnc3)c3nc(N4CCN(CC)CC4)ncc32)c1F` [I-21], with 89 nM. For `CN(c1ccc2c(n1)c(-c1cncnc1)cn2-c1c(F)ccc(NS(=O)(=O)C2CC2)c1F)C1CCN(C(=O)OC(C)(C)C)CC1` [I-22], it took 112 nM to reach a half-maximal effect (EC50). `CCN1CCN(c2ccc3c(n2)c(-c2cncnc2)cn3-c2c(F)ccc(NS(=O)(=O)CC3CCCO3)c2F)CC1` (stereo not drawn) [I-16] registered an EC50 of 491 nM. Still for that read-out and setting: then `CCCS(=O)(=O)Nc1ccc(F)c(-n2cc(-c3cncnc3)c3nc(N(C)C4CCN(C(=O)OC(C)(C)C)CC4)ccc32)c1F` [I-13], with 86 nM. On to `CCCS(=O)(=O)Nc1ccc(F)c(-n2cc(-c3cncnc3)c3nc(N(C)C4CCNCC4)ncc32)c1F` [I-12], for which it took 60 nM to reach a half-maximal effect (EC50). On the same count and under the same terms, the same measure for `CCCS(=O)(=O)Nc1ccc(F)c(-n2cc(-c3cncc(OC)c3)c3nc(N(C)C4CCN(C)CC4)ncc32)c1F` [I-7]: 40 nM. Take `CCCS(=O)(=O)Nc1ccc(F)c(-n2cc(-c3cncc(OC)c3)c3nc(N(C)C4CCN(C)CC4)cnc32)c1F` [I-5]: the EC50 was determined as 41 nM.

With `CCCS(=O)(=O)Nc1ccc(F)c(-n2cc(-c3cncnc3)c3nc(N(C)C4CCN(CC)CC4)ccc32)c1F` [I-42], the EC50 stood at 0.84 nM. Still for that read-out and setting: the same measure for `CCCN1CCC(N(C)c2ccc3c(n2)c(-c2cncnc2)cn3-c2c(F)ccc(NS(=O)(=O)CCC)c2F)CC1` [I-34]: 2 nM; for `CCCS(=O)(=O)Nc1ccc(F)c(-n2cc(-c3cncnc3)c3nc(N(C)C4CCN(C)CC4)ccc32)c1F` [I-30]: 2 nM; for `CCCS(=O)(=O)Nc1ccc(F)c(-n2cc(-c3cncnc3)c3nc(N4CCN(C5CC5)CC4)ccc32)c1F` [I-29]: 41 nM. Still for that read-out and setting: the same measure for `CCCS(=O)(=O)Nc1ccc(F)c(-n2cc(-c3cncnc3)c3nc(N4CCN(CC5CC5)CC4)ccc32)c1F` [I-31]: 31 nM. Same read-out and setting: then `O=S(=O)(CC1CCCO1)Nc1ccc(F)c(-n2cc(-c3cncnc3)c3nc(N4CCNCC4)ccc32)c1F` (stereo not drawn) [I-15], with 181 nM.

`CCCS(=O)(=O)Nc1ccc(F)c(-n2cc(-c3cncnc3)c3nc(N4CCN(CC5CC5)CC4)ncc32)c1F` [I-27] came in with an EC50 of 54 nM. Still for that read-out and setting: then `CCCS(=O)(=O)Nc1ccc(F)c(-n2cc(-c3cncnc3)c3nc(N(C)C4CCN(CC5CC5)CC4)ncc32)c1F` [I-43], with 5 nM. Still for that read-out and setting: then `CCCS(=O)(=O)Nc1ccc(F)c(-n2cc(-c3cncnc3)c3nc(N4CCN(C)CC4)ncc32)c1F` [I-24], with 68 nM; and `[2H]C([2H])([2H])C([2H])([2H])N1CCC(N(C)c2ccc3c(n2)c(-c2cncnc2)cn3-c2c(F)ccc(NS(=O)(=O)CCC)c2F)CC1` [I-46], with 3 nM; and `CCCS(=O)(=O)Nc1ccc(F)c(-n2cc(-c3cncnc3)c3nc(N(C)C4CCN(C)CC4)ncc32)c1F` [I-8], with 6 nM. Still for that read-out and setting: then `CCCS(=O)(=O)Nc1ccc(F)c(-n2cc(-c3cncnc3)c3nc(N(C)C4CCN(CCOC)CC4)c(F)cc32)c1F` [I-35], with 6 nM.
